This note sets out measurements from PMC11339798, “Dual inhibitors of Pseudomonas aeruginosa virulence factors LecA and LasB” (Chemical Science, 2024).

SMILES strings stand for the structures. A value given as a limit tells only on which side of the number the result lay.

The target of one series is T1, LasB (Pseudomonas aeruginosa, UniProt Q02RJ6).
T1 construct: P. aeruginosa PA14 culture supernatant; made in house; host or cells: native secreted enzyme purified from P. aeruginosa PA14 culture supernatant (not recombinant)
T1 sequence (Q02RJ6 198-498): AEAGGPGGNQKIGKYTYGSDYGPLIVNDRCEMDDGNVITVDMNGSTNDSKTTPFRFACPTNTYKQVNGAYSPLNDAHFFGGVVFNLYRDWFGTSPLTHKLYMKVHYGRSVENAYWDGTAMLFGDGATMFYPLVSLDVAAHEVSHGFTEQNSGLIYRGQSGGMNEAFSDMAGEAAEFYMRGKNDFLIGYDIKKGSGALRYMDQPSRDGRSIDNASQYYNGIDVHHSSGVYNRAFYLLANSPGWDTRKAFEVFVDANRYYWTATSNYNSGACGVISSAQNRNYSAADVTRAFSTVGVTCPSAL
The experiment in a line: FRET-based in vitro LasB inhibition (proteolysis) assay. The class given is biochemical, P. aeruginosa PA14. Here is the method:
The LasB activity of the thiol derivatives 11, 12, 17, 18, 24 and 25 was tested using a functional FRET-based in vitro proteolysis assay (Fig. 4A). […]
(§1) Expression and purification of LasB and LecA
LecA was expressed recombinantly using E. coli pET25-pail, whereas LasB was isolated from P. aeruginosa PA14 culture supernatant as described previously. 1,2 […]
In vitro inhibition assay for LasB
The in vitro inhibition assay was performed as described previously,2 using purified LasB (final concentration 0.3 nM), the fluorogenic substrate 2-aminobenzoyl-Ala-Gly-Leu-Ala-4-nitrobenzylamide (purchased from Peptides International (Louisville, KY, USA) or Vivitide, LLC (Gardner, MA, USA), final concentration 150 µM)) in assay buffer (50 mM Tris, pH 7.2, 2.5 mM CaCl2, 0.075% Pluronic F-127, 5% DMSO). Fluorescence was measured using a CLARIOstar plate reader (BMG Labtech, Ortenberg, Germany). IC50 values were calculated using GraphPad Prism 8 (GraphPad Software, San Diego, CA, USA) from at least three independent experiments performed in duplicate.

In a further series the target is T2, LecA (Pseudomonas aeruginosa, UniProt Q05097).
T2 construct: made in house; host or cells: E. coli (plasmid pET25-pail)
T2 sequence (Q05097 whole entry): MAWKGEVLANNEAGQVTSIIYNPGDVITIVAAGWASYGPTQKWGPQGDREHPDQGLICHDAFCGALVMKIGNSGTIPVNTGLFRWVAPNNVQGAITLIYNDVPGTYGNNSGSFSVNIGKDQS
Description: Competitive binding assay for LecA based on fluorescence polarization. More on the design: species or system P. aeruginosa. Here is the method:
The four thiols 17, 18, 24 and 25 as well as three disulfides 26a, 26b and 27 were then evaluated for their activity against LecA using a competitive binding assay based on fluorescence polarization (Fig. 4B). […]
as §1
LecA was expressed recombinantly using E. coli pET25-pail, whereas LasB was isolated from P. aeruginosa PA14 culture supernatant as described previously. 1,2
LecA labeling with fluorescein was performed in analogy to Sommer et al. 3 and Beshr et al.4 To this end fluorescein isothiocyanate (FITC) was freshly dissolved in carbonate-bicarbonate buffer with pH of 9.3 at a concentration of 3 mg mL-1. Subsequently, 66 µL of this FITC solution was combined with 1.4 mL of LecA at a concentration of 60 µM in carbonate-bicarbonate buffer, pH 9.3. The resulting mixture was then incubated at 25 °C with shaking at 500 rpm for 1 hour. Then, extensive washing with PBS/Ca2+ in a 5 kDa molecular weight cutoff centrifugal concentrator was performed to remove excess dye and buffer the labelled protein. […]
Competitive binding assay for LecA
The procedure for the fluorescence polarization-based competitive binding assay for LecA was performed as reported by Joachim et al. with modifications. 1 The assay was performed in TBS/Ca2+ buffer (20 mM Tris, 137 mM NaCl, 2.6 mM KCl at pH 7.4 supplemented with 1 mM CaCl 2 and contained 5% DMSO). The final protein concentration in the assay was 5 µM for LecA. Fluorescence intensities were recorded on a PheraStar FS plate reader (BMG Labtech GmbH, Germany) and polarization was calculated using MARS Data Analysis (BMG Labtech).
IC50 values were obtained from a four-parameter curve-fitting procedure. Averages and standard deviations were calculated from at least three independent experiments of technical

Another series deals with T3, MMP-1 (Homo sapiens, UniProt P03956).
T3 construct: purchased AnaSpec (Fremont, CA, USA)
T3 sequence (P03956 100-469): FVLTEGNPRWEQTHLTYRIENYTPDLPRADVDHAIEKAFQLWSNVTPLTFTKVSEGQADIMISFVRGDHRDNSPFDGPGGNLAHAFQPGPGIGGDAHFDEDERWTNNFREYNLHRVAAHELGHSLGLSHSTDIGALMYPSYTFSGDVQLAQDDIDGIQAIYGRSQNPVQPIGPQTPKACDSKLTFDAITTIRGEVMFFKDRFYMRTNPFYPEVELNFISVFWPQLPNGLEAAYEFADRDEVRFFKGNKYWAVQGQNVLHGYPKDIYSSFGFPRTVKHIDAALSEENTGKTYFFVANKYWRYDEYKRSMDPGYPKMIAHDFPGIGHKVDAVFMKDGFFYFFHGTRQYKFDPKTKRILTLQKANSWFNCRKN
Description: MMP selectivity assay (SensoLyte 520 Generic MMP Activity Kit). Conditions: read-out: Percent inhibition at 100 µM, MMP-1, 100 µM. The class given is biochemical. An excerpt:
(§2) Given that the novel inhibitors contain a free thiol as a strong zinc binding group, we analyzed the selectivity of the diastereomeric mixtures 11 and 12 on six human matrix metalloproteases (MMPs) as putative off-targets.[53] […] Furthermore, we tested the impact of 11 and 12 on bacterial viability to ensure that these compounds are antivirulence agents and not antibiotics. […]
(§3) Selectivity and toxicity assays
(§4) Human MMPs -1, -2, -3, -7, -8 and -14 along with the SensoLyte 520 Generic MMP Activity
(§5) Kit*Fluorimetric* were purchased from AnaSpec (Fremont, CA, USA). The inhibition assay

Another series concerns the target T4, MMP-14 (Homo sapiens, UniProt P50281).
T4 construct: purchased AnaSpec (Fremont, CA, USA)
The description is as above. Conditions: read-out: Percent inhibition at 100 µM, MMP-14, 100 µM. It counts as biochemical.
Description: as §2, §3, §4, §5

A further series addresses T5, MMP-2 (Homo sapiens, UniProt P08253).
T5 construct: purchased AnaSpec (Fremont, CA, USA)
The description is as above. Conditions: read-out: Percent inhibition at 100 µM, MMP-2, 100 µM. It counts as biochemical.
Description: as §2, §3, §4, §5

For a further series, the target named is T6, MMP-3 (Homo sapiens, UniProt P08254).
T6 construct: purchased AnaSpec (Fremont, CA, USA)
T6 sequence (P08254 100-477): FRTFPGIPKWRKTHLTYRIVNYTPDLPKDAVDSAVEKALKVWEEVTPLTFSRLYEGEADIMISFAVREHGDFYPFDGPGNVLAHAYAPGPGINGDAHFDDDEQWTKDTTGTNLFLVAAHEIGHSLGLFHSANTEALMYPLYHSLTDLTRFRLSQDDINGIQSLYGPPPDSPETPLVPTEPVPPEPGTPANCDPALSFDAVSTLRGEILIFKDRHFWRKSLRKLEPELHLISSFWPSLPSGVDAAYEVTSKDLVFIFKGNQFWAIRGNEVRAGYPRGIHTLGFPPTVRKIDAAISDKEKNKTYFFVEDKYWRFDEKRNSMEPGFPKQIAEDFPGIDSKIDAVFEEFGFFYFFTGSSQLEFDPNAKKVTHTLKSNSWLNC
Described as above. It counts as biochemical. As to conditions: read-out: Percent inhibition at 100 µM, MMP-3, 100 µM.
Description: as §2, §3, §4, §5

The target in the next series is T7, MMP-7 (Homo sapiens, UniProt P09237).
T7 construct: purchased AnaSpec (Fremont, CA, USA)
T7 sequence (P09237 95-267): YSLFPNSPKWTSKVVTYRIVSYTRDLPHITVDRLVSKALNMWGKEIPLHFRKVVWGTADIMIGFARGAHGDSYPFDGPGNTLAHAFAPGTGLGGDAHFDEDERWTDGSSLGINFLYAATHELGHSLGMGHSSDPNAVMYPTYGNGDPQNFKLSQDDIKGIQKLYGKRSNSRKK
The series is described as above. As to conditions: read-out: Percent inhibition at 100 µM, MMP-7, 100 µM. It counts as biochemical.
Description: as §2, §3, §4, §5

The target in another series is T8, MMP-8 (Homo sapiens, UniProt P22894).
T8 construct: purchased AnaSpec (Fremont, CA, USA)
T8 sequence (P22894 101-467): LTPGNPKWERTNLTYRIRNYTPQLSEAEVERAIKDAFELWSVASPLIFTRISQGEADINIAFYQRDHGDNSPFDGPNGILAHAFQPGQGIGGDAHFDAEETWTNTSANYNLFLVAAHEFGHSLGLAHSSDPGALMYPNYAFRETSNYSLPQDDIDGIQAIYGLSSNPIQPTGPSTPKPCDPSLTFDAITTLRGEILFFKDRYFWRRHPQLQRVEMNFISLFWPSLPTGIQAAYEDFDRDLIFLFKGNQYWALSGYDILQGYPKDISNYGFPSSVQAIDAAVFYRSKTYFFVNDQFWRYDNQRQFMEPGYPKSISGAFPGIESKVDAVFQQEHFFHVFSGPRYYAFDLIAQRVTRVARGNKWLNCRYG
The description is as above. It counts as biochemical. As to conditions: read-out: Percent inhibition at 100 µM, MMP-8, 100 µM.
Description: as §2, §3, §4, §5

Series [1] concerns Pseudomonas aeruginosa PA14. The experiment in a line: Antibacterial activity (MIC, ESCMID guidelines). It counts as cell-based. As to conditions: for MIC: Pseudomonas aeruginosa, PA14; for antimicrobial activity (bacterial viability): up to 100 μM. Here is the method:
as §2
(§6) Selectivity and toxicity assays […]
Antimicrobial activity against P. aeruginosa PA14 was tested using ESCMID guidelines and […]

Series [2] is described as follows: Cytotoxicity MTT assay. As to conditions: human. It counts as cell-based, human. The protocol:
as §6
(§7) Cytotoxicity on human liver (HepG2), kidney (HEK293) and lung (A549) cells were performed
(§8) using MTT assay and measuring the optical density (OD) photometrically at 570 nm in a […]

A further series has as its system HEK293. Description: Cytotoxicity MTT assay. The class given is cell-based, human. As to conditions: HEK293, at 100 μM. The protocol: as §6, §7, §8
In a further series the test system is HepG2. The experiment in a line: Cytotoxicity MTT assay. The class given is cell-based, human. As to conditions: HepG2, at 100 μM. The protocol:
as §6, §7, §8

A short description of series [3]: Cytotoxicity MTT assay. As to conditions: human, A549 cells (lung). It counts as cell-based, human. Here is the method:
as §6
(§9) Cytotoxicity on human liver (HepG2), kidney (HEK293) and lung (A549) cells were performed using MTT assay and measuring the optical density (OD) photometrically at 570 nm in a FLUOstar Omega plate reader (BMG labtech, Ortenberg, Germany) as described previously. 6 […]
(§10) The A549 cell line, derived from human lung adenocarcinoma, was grown in Dulbecco's Modified Eagle Medium (DMEM) supplemented with 10% Fetal Bovine Serum (FBS) and 1% penicillin-streptomycin. […]

In another series the test system is A549. Description: Cytotoxicity MTT assay. It counts as cell-based, human. As to conditions: A549, at 100 μM. The protocol: as §6, §9, §10

T5 sequence (P08253 110-660): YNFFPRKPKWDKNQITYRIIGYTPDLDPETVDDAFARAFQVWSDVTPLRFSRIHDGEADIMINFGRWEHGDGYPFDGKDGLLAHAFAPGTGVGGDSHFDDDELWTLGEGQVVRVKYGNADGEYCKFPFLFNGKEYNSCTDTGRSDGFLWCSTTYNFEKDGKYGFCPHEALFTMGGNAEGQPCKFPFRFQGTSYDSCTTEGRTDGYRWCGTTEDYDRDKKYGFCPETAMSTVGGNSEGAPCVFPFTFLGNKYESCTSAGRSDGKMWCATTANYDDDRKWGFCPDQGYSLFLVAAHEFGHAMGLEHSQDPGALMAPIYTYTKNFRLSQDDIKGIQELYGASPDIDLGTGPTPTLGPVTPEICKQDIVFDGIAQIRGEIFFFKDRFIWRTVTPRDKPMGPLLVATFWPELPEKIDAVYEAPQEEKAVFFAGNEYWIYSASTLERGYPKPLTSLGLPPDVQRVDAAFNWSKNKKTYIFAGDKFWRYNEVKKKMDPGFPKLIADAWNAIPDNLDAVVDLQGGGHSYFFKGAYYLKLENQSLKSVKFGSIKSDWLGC

Consider `O=C(Nc1ccc(S[C@@H]2O[C@H](CO)[C@H](O)[C@H](O)[C@H]2O)cc1)C(S)Cc1ccccc1` (some centres unmarked) [Compound 11], for which the IC50 on LasB was 300 nM; at LecA it was 18.1 µM; in the series “Cytotoxicity MTT assay [2]” (HEK293 cells (kidney)), above 100 µM; in “Cytotoxicity MTT assay [2]” (HepG2 cells (liver)), above 100 µM; in the series “Cytotoxicity MTT assay [3]”, above 100 µM. In addition, the inhibition at 100 µM at MMP-1 was 10 ± 5%; at MMP-14 it was below 10%; on MMP-2, below 10%; at MMP-3, below 10%; at MMP-7 it was below 10%; at MMP-8, below 10%. In series [1], this molecule yielded a minimum inhibitory concentration (MIC) above 100 µM. The “antimicrobial activity (bacterial viability)” value in series [1] is “No antimicrobial activity was detected”. Also, the cytotoxicity result in the series with HEK293, in the series with HepG2 and with A549 was “no detectable cytotoxicity” throughout.
For `CC(C)CC(S)C(=O)Nc1ccc(S[C@@H]2O[C@H](CO)[C@H](O)[C@H](O)[C@H]2O)cc1` (some centres unmarked) [Compound 12], the IC50 against LasB was 800 nM; at LecA it was 19.8 µM; in “Cytotoxicity MTT assay [2]” (HEK293 cells (kidney)), above 100 µM; in “Cytotoxicity MTT assay [2]” (HepG2 cells (liver)), above 100 µM; in the series “Cytotoxicity MTT assay [3]”, above 100 µM. Further, the inhibition at 100 µM on MMP-1 is below 10%; at MMP-14, 19 ± 5%; on MMP-2, 19 ± 3%; at MMP-3, below 10%; at MMP-7, below 10%; at MMP-8 it was below 10%. This molecule also gave an MIC in series [1] above 100 µM. For the same molecule, in series [1], the “antimicrobial activity (bacterial viability)” value is listed as “No antimicrobial activity was detected”. Also, the cytotoxicity entry in the series with HEK293, in the series on HepG2 and with A549 was “no detectable cytotoxicity” each time.
